Results on one substance are retold here after patent US20260240869A1, “ANTIPSEUDOMONAL FUSIDIC ACID COMPOUNDS” (priority 2022, published 2026).

Test [1] deals with P. aeruginosa PAO1. Put plainly: MIC, CLSI broth microdilution, P. aeruginosa PAO1. It counts as cell-based, Pseudomonas aeruginosa. As to the method:
Antimicrobial Susceptibility Tests. Susceptibility testing was performed in biological triplicate, using the microdilution broth method as outlined by the Clinical and Laboratory Standards Institute. Bacteria were cultured with cation-adjusted Meuller-Hinton broth (Sigma-Aldrich; catalogue number: 90922) or Luria-Bertani (LB) broth (Lennox) in round-bottom 96-well plates (Corning; catalogue number: 3788).
(In broth dilution the organism is exposed to a series of concentrations in liquid medium.)

Test [2] has as its system P. aeruginosa PAO1. Put plainly: NPN outer membrane permeability assay. In kind it is cell-based, Pseudomonas aeruginosa. The note with it: treatment for ten minutes. An excerpt: Further, the fluorescent probe N-phenylnapthylamine (NPN) was used to assess outer membrane permeability changes upon treatment with FA, gentamicin, and FA prodrug. NPN is membrane impermeable and is only weakly fluorescent in aqueous solutions. Upon entry to the cell and interacting with phospholipids, significant fluorescence is observed. […] This residual membrane depolarizing antibacterial activity can be observed in the FA polyamine (FIG. 4a) and the diacylated compound (Table 9).

Consider Gentamicin, for which the “Fold change (MIC)” value in the test with P. aeruginosa PAO1 [1] (5 mM MgCl2/CAMH versus CAMH (Table 10)) was 32X. This substance returned an MIC P. aeruginosa PAO1, CAMH against P. aeruginosa PAO1 [1] (CAMH (Table 10)) of 0.25 µg/mL. The “shift in MIC on co-treatment with 5 mM MgCl2” value in the test with P. aeruginosa PAO1 [1] (P. aeruginosa PAO1) is on record as 32 -fold. Also, the “MIC P. aeruginosa PAO1, 5 mM MgCl2/CAMH” value in the test with P. aeruginosa PAO1 [1] (co-treatment 5 mM MgCl2 in CAMH (Table 10)) came to 8. Further, in the test on P. aeruginosa PAO1 [2], the “NPN fluorescence (outer membrane permeability)” value is “dose-dependent increase”.
